Data taken from ChEMBL document CHEMBL5370608, “Selective and Bioavailable HDAC6 2-(Difluoromethyl)-1,3,4-oxadiazole Substrate Inhibitors and Modeling of Their Bioactivation Mechanism” (J Med Chem, 2023).

Assays:
[1] = Chemical stability of compound in HCL solution at pH 1 assessed as half life by UPLC analysis; type: physicochemical
[2] = Metabolic stability in mouse hepatocytes assessed as intrinsic clearance at 1 uM measured per 10^6 cells incubated at 2 to 60 mins by LC-MS/MS analysis; type: ADME, cell-based, Hepatocyte; conditions: time 2-60 min, read-out: CLH
[3] = Half life in C57/BI mouse at 10 mg/kg, po measured upto 24 hrs by LC-MS/MS analysis; type: ADME, organism-based; conditions: in vivo
[4] = Clearance in Wistar Han rat at 0.5 mg/kg, iv measured upto 24 hrs by LC-MS/MS analysis; type: ADME, organism-based; conditions: in vivo
[5] = Volume of distribution at steady state in C57/BI mouse at 10 mg/kg, po or 2 mg/kg, iv measured upto 24 hrs by LC-MS/MS analysis; type: ADME, organism-based; conditions: in vivo
[6] = Half life in Wistar Han rat at 0.5 mg/kg, iv measured upto 24 hrs by LC-MS/MS analysis; type: ADME, organism-based; conditions: in vivo
[7] = Clearance in C57/BI mouse at 2 mg/kg, iv measured upto 24 hrs by LC-MS/MS analysis; type: ADME, organism-based; conditions: in vivo
[8] = Half life in C57/BI mouse at 2 mg/kg, iv measured upto 24 hrs by LC-MS/MS analysis; type: ADME, organism-based; conditions: in vivo
[9] = Oral bioavailability in Wistar Han rat at 10 mg/kg measured upto 24 hrs by LC-MS/MS analysis; type: ADME, organism-based; conditions: in vivo
[10] = molecular target: T1, Protein deacetylase HDAC6 (Mus musculus, UniProt Q9Z2V5); assay: Inhibition of HDAC6 in mouse LA-4 cells assessed as deacetylation of acetylated alpha-tubulin level incubated for 24 hrs by Western blot analysis; type: cell-based
T1 sequence (Q9Z2V5 whole entry): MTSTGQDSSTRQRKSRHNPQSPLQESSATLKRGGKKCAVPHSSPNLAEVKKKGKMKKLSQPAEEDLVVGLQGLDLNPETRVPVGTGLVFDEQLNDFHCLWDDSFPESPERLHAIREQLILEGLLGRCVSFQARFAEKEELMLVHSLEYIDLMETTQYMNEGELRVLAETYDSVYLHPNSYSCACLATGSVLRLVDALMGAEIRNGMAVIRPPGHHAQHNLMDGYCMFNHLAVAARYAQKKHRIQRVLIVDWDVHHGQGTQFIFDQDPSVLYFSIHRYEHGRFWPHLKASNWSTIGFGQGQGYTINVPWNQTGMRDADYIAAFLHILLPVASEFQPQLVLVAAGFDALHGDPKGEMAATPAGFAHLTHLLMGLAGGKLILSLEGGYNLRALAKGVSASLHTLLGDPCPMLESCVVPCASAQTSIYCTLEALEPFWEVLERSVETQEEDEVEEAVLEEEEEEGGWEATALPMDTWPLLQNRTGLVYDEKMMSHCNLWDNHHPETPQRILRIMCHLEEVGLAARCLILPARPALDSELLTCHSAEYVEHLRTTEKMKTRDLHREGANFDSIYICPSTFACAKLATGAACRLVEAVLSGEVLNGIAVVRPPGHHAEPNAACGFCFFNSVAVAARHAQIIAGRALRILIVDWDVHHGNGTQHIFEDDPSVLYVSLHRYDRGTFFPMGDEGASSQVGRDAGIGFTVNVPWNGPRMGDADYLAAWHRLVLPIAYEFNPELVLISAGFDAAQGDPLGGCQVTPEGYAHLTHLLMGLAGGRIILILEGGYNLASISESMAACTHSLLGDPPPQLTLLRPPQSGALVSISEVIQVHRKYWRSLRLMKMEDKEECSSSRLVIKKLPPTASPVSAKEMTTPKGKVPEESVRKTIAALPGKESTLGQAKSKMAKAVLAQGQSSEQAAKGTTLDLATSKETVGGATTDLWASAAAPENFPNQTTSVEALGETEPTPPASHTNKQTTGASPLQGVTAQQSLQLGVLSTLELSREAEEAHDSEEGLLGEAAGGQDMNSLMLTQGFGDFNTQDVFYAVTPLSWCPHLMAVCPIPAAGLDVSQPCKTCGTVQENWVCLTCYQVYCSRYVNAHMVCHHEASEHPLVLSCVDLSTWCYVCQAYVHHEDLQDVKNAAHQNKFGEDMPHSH

[11] = Volume of distribution at steady state in Wistar Han rat at 1 mg/kg, po or 0.5 mg/kg, iv measured upto 24 hrs by LC-MS/MS analysis; type: ADME, organism-based; conditions: in vivo
[12] = AUC (0 to infinity) in C57/BI mouse at 10 mg/kg, po measured upto 24 hrs by LC-MS/MS analysis; type: ADME, organism-based; set-up: time < 24 hrs, dose 10 mg/kg, route po; conditions: in vivo
[13] = Volume of distribution at steady state in C57/BI mouse at 1 mg/kg, po or 0.5 mg/kg, iv measured upto 24 hrs by LC-MS/MS analysis; type: ADME, organism-based; conditions: in vivo
[14] = Clearance in C57/BI mouse at 0.5 mg/kg, iv measured upto 24 hrs by LC-MS/MS analysis; type: ADME, organism-based; conditions: in vivo
[15] = Half life in Wistar Han rat at 1 mg/kg, po measured upto 24 hrs by LC-MS/MS analysis; type: ADME, organism-based; conditions: in vivo
[16] = Plasma protein binding in mouse assessed as unbound fraction; type: ADME, cell-free
[17] = Oral bioavailability in Wistar Han rat at 1 mg/kg measured upto 24 hrs by LC-MS/MS analysis; type: ADME, organism-based; conditions: in vivo

SMILES	half-life [1] [min]	hepatocyte CLint at 1 µM [2] [µL/min/1e6 cells]	half-life [3] [min]	clearance [4] [mL/min/kg]	Vdss [5] [L/kg]	half-life [6] [min]	clearance [7] [mL/min/kg]	half-life [8] [min]	bioavailability [9] [%]	IC50 [10] [nM]	Vdss [11] [L/kg]	AUC(0-inf) [12] [µM·h]	Vdss [13] [L/kg]	clearance [14] [mL/min/kg]	half-life [15] [min]	fraction unbound [16]	bioavailability [17] [%]
CS(=O)(=O)NCC(Nc1ncc(-c2nnc(C(F)F)o2)cn1)c1ccc(OC(F)(F)F)cc1 (stereo not drawn)	706																
O=C(NO)c1cnc(NC2(c3ccccc3)CCC(F)(F)CC2)nc1		130	102	180	1.6	18	140	12	19	398	2.2	0.4					
FC(F)c1nnc(-c2ccc(Cn3nnc(-c4ccccn4)n3)nc2)o1	461	< 1		3.2		438				1000	1.8		0.9	2.4	600	0.27	100
